From PubChem BioAssay (NCI)
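Values below derive from 48-hour exposures of cells grown in 96-well plates, with endpoints linearly interpolated between the two concentrations bracketing the appropriate inhibition level. At the TGI there is no net growth.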 Where a SMILES comes first, the peptide text is derived from it. [ ]: non-standard residue; d: D form.

Columns and labels:
Experiment in all cases: NCI tumour cell line growth inhibition, 48 h
SK-MEL-5 melanoma = test system: SK-MEL-5 melanoma
PC-3 prostate = test system: PC-3 prostate
SK-MEL-28 melanoma = test system: SK-MEL-28 melanoma
MCF7 breast = test system: MCF7 breast
OVCAR-3 ovarian = test system: OVCAR-3 ovarian
A549 NSCLC = test system: A549 NSCLC
MOLT-4 leukemia = test system: MOLT-4 leukemia
HCT-15 colon = test system: HCT-15 colon
SF-539 CNS = test system: SF-539 CNS
SW-620 colon = test system: SW-620 colon
LOX IMVI melanoma = test system: LOX IMVI melanoma
M14 melanoma = test system: M14 melanoma
MDA-MB-231 breast = test system: MDA-MB-231 breast
SNB-19 CNS = test system: SNB-19 CNS
IGROV1 ovarian = test system: IGROV1 ovarian
NCI-H23 lung = test system: NCI-H23 lung
SNB-75 CNS = test system: SNB-75 CNS
HCT-116 colon = test system: HCT-116 colon
HS 578T breast = test system: HS 578T breast
HCC-2998 colon = test system: HCC-2998 colon
UACC-257 melanoma = test system: UACC-257 melanoma
SF-268 CNS = test system: SF-268 CNS
SR leukemia = test system: SR leukemia
OVCAR-5 ovarian = test system: OVCAR-5 ovarian
A498 renal = test system: A498 renal
RPMI-8226 leukemia = test system: RPMI-8226 leukemia
NCI-H460 lung = test system: NCI-H460 lung
DU-145 prostate = test system: DU-145 prostate
BT-549 breast = test system: BT-549 breast
K-562 leukemia = test system: K-562 leukemia
KM12 colon = test system: KM12 colon
NCI-H226 lung = test system: NCI-H226 lung
U251 CNS = test system: U251 CNS
COLO 205 colon = test system: COLO 205 colon
OVCAR-8 ovarian = test system: OVCAR-8 ovarian
HOP-62 NSCLC = test system: HOP-62 NSCLC
HT29 colon = test system: HT29 colon
SF-295 CNS = test system: SF-295 CNS
NCI/ADR-RES ovarian = test system: NCI/ADR-RES ovarian
RXF 393 renal = test system: RXF 393 renal
786-0 renal = test system: 786-0 renal
SN12C renal = test system: SN12C renal
SK-OV-3 ovarian = test system: SK-OV-3 ovarian
HOP-92 NSCLC = test system: HOP-92 NSCLC
CAKI-1 renal = test system: CAKI-1 renal
OVCAR-4 ovarian = test system: OVCAR-4 ovarian
NCI-H522 lung = test system: NCI-H522 lung
EKVX NSCLC = test system: EKVX NSCLC
ACHN renal = test system: ACHN renal
UO-31 renal = test system: UO-31 renal
UACC-62 melanoma = test system: UACC-62 melanoma
HL-60(TB) leukemia = test system: HL-60(TB) leukemia
MDA-MB-435 = test system: MDA-MB-435
TK-10 renal = test system: TK-10 renal
T-47D breast = test system: T-47D breast
SK-MEL-2 melanoma = test system: SK-MEL-2 melanoma
MALME-3M melanoma = test system: MALME-3M melanoma
CCRF-CEM leukemia = test system: CCRF-CEM leukemia

SMILES: COc1ccc(C(C)c2cc3c(cc2O)OCO3)cc1 (stereo unspecified)
- TGI (SK-MEL-5 melanoma): 28.1 µM
- TGI (PC-3 prostate): 31.9 µM
- TGI (SK-MEL-28 melanoma): 33 µM
- TGI (MCF7 breast): 30.8 µM
- TGI (OVCAR-3 ovarian): 28.3 µM
- TGI (A549 NSCLC): 32.2 µM
- TGI (MOLT-4 leukemia): 29.4 µM
- TGI (HCT-15 colon): 23.2 µM
- TGI (SF-539 CNS): 37 µM
- TGI (SW-620 colon): 28 µM
- TGI (LOX IMVI melanoma): 26.5 µM
- TGI (M14 melanoma): 27.2 µM
- TGI (MDA-MB-231 breast): 28.6 µM
- TGI (SNB-19 CNS): 66.6 µM
- TGI (IGROV1 ovarian): 36.5 µM
- TGI (NCI-H23 lung): 31.1 µM
- TGI (SNB-75 CNS): 60.2 µM
- TGI (HCT-116 colon): 29.6 µM
- TGI (HS 578T breast): 42.6 µM
- TGI (HCC-2998 colon): 19.3 µM
- TGI (UACC-257 melanoma): 32.2 µM
- TGI (SF-268 CNS): 32.5 µM
- TGI (SR leukemia): 13.6 µM
- TGI (OVCAR-5 ovarian): 45.2 µM
- TGI (A498 renal): 28.5 µM
- TGI (RPMI-8226 leukemia): 38.8 µM
- TGI (NCI-H460 lung): 28.8 µM
- TGI (DU-145 prostate): 36.5 µM
- TGI (BT-549 breast): 32.5 µM
- TGI (K-562 leukemia): 28.7 µM
- TGI (KM12 colon): 83.3 µM
- TGI (NCI-H226 lung): 36.1 µM
- TGI (U251 CNS): 28.6 µM
- TGI (COLO 205 colon): 27.4 µM
- TGI (OVCAR-8 ovarian): 31.7 µM
- TGI (HOP-62 NSCLC): 33.7 µM
- TGI (HT29 colon): 28.9 µM
- TGI (SF-295 CNS): 35.3 µM
- TGI (NCI/ADR-RES ovarian): 32.7 µM
- TGI (RXF 393 renal): 30.1 µM
- TGI (786-0 renal): 34.5 µM
- TGI (SN12C renal): 33.3 µM
- TGI (SK-OV-3 ovarian): 53.2 µM
- TGI (HOP-92 NSCLC): 31 µM
- TGI (CAKI-1 renal): 74.4 µM
- TGI (OVCAR-4 ovarian): > 100 µM
- TGI (NCI-H522 lung): 26 µM
- TGI (EKVX NSCLC): 49.6 µM
- TGI (ACHN renal): 47.6 µM
- TGI (UO-31 renal): 29.8 µM
- TGI (UACC-62 melanoma): 24.4 µM
- TGI (HL-60(TB) leukemia): 32.3 µM
- TGI (MDA-MB-435): 18 µM
- TGI (TK-10 renal): 35.9 µM
- TGI (T-47D breast): 79.1 µM
- TGI (SK-MEL-2 melanoma): 28.9 µM

SMILES: Cc1cc2c(c(S(=O)(=O)c3ccc(Cl)cc3[N+](=O)[O-])c1)NCCC2
- TGI (SK-MEL-5 melanoma): > 100 µM
- TGI (PC-3 prostate): > 100 µM
- TGI (SK-MEL-28 melanoma): > 100 µM
- TGI (MCF7 breast): > 100 µM
- TGI (MALME-3M melanoma): > 100 µM
- TGI (OVCAR-3 ovarian): > 100 µM
- TGI (A549 NSCLC): > 100 µM
- TGI (HCT-15 colon): > 100 µM
- TGI (SF-539 CNS): > 100 µM
- TGI (SW-620 colon): > 100 µM
- TGI (LOX IMVI melanoma): > 100 µM
- TGI (M14 melanoma): > 100 µM
- TGI (MDA-MB-231 breast): > 100 µM
- TGI (SNB-19 CNS): > 100 µM
- TGI (IGROV1 ovarian): > 100 µM
- TGI (NCI-H23 lung): > 100 µM
- TGI (SNB-75 CNS): > 100 µM
- TGI (HS 578T breast): > 100 µM
- TGI (HCC-2998 colon): > 100 µM
- TGI (SF-268 CNS): > 100 µM
- TGI (SR leukemia): > 100 µM
- TGI (OVCAR-5 ovarian): > 100 µM
- TGI (A498 renal): > 100 µM
- TGI (RPMI-8226 leukemia): > 100 µM
- TGI (NCI-H460 lung): > 100 µM
- TGI (DU-145 prostate): > 100 µM
- TGI (BT-549 breast): > 100 µM
- TGI (KM12 colon): > 100 µM
- TGI (NCI-H226 lung): > 100 µM
- TGI (U251 CNS): > 100 µM
- TGI (COLO 205 colon): > 100 µM
- TGI (OVCAR-8 ovarian): > 100 µM
- TGI (HOP-62 NSCLC): > 100 µM
- TGI (HT29 colon): > 100 µM
- TGI (SF-295 CNS): > 100 µM
- TGI (NCI/ADR-RES ovarian): > 100 µM
- TGI (RXF 393 renal): > 100 µM
- TGI (786-0 renal): > 100 µM
- TGI (SN12C renal): > 100 µM
- TGI (SK-OV-3 ovarian): > 100 µM
- TGI (OVCAR-4 ovarian): > 100 µM
- TGI (NCI-H522 lung): > 100 µM
- TGI (EKVX NSCLC): > 100 µM
- TGI (ACHN renal): > 100 µM
- TGI (UO-31 renal): > 100 µM
- TGI (UACC-62 melanoma): > 100 µM
- TGI (MDA-MB-435): > 100 µM
- TGI (TK-10 renal): > 100 µM
- TGI (T-47D breast): > 100 µM
- TGI (SK-MEL-2 melanoma): > 100 µM

SMILES: NC(N)=NCCC[C@H]1NC(=O)[C@@H](CCC(=O)O)NC(=O)[C@@H](CC(=O)O)NC(=O)[C@@H](CCC(=O)O)NC(=O)[C@H](Cc2c[nH]c3ccccc23)NC1=O (cyclo(W[dE][dD][dE][dR]))
- TGI (SK-MEL-5 melanoma): > 7.5 µM
- TGI (PC-3 prostate): > 7.5 µM
- TGI (MCF7 breast): > 7.5 µM
- TGI (OVCAR-3 ovarian): > 7.5 µM
- TGI (A549 NSCLC): > 7.5 µM
- TGI (MOLT-4 leukemia): > 7.5 µM
- TGI (HCT-15 colon): > 7.5 µM
- TGI (SF-539 CNS): > 7.5 µM
- TGI (SW-620 colon): > 7.5 µM
- TGI (LOX IMVI melanoma): > 7.5 µM
- TGI (M14 melanoma): > 7.5 µM
- TGI (MDA-MB-231 breast): > 7.5 µM
- TGI (SNB-19 CNS): > 7.5 µM
- TGI (IGROV1 ovarian): > 7.5 µM
- TGI (NCI-H23 lung): > 7.5 µM
- TGI (HCT-116 colon): > 7.5 µM
- TGI (HS 578T breast): > 7.5 µM
- TGI (HCC-2998 colon): > 7.5 µM
- TGI (UACC-257 melanoma): > 7.5 µM
- TGI (SF-268 CNS): > 7.5 µM
- TGI (SR leukemia): > 7.5 µM
- TGI (OVCAR-5 ovarian): > 7.5 µM
- TGI (A498 renal): > 7.5 µM
- TGI (RPMI-8226 leukemia): > 7.5 µM
- TGI (NCI-H460 lung): > 7.5 µM
- TGI (DU-145 prostate): > 7.5 µM
- TGI (BT-549 breast): > 7.5 µM
- TGI (K-562 leukemia): > 7.5 µM
- TGI (KM12 colon): > 7.5 µM
- TGI (NCI-H226 lung): > 7.5 µM
- TGI (U251 CNS): > 7.5 µM
- TGI (COLO 205 colon): > 7.5 µM
- TGI (OVCAR-8 ovarian): > 7.5 µM
- TGI (HOP-62 NSCLC): > 7.5 µM
- TGI (HT29 colon): > 7.5 µM
- TGI (SF-295 CNS): > 7.5 µM
- TGI (NCI/ADR-RES ovarian): > 7.5 µM
- TGI (RXF 393 renal): > 7.5 µM
- TGI (CCRF-CEM leukemia): > 7.5 µM
- TGI (786-0 renal): > 7.5 µM
- TGI (SN12C renal): > 7.5 µM
- TGI (SK-OV-3 ovarian): > 7.5 µM
- TGI (HOP-92 NSCLC): > 7.5 µM
- TGI (CAKI-1 renal): > 7.5 µM
- TGI (OVCAR-4 ovarian): > 7.5 µM
- TGI (NCI-H522 lung): > 7.5 µM
- TGI (EKVX NSCLC): > 7.5 µM
- TGI (ACHN renal): > 7.5 µM
- TGI (UO-31 renal): > 7.5 µM
- TGI (UACC-62 melanoma): > 7.5 µM
- TGI (HL-60(TB) leukemia): > 7.5 µM
- TGI (MDA-MB-435): > 7.5 µM
- TGI (TK-10 renal): > 7.5 µM
- TGI (T-47D breast): > 7.5 µM
- TGI (SK-MEL-2 melanoma): 0.507 µM
